According to US20040072725A1, “Remedies/preventives for inflammatory diseases” (AJINOMOTO CO. INC, priority 2001, published 2004):

Tests used:
[1] = test system: collagen-induced arthritis (CIA) in DBA-1 mice; test: Murine collagen-induced arthritis (CIA); assay type: in vivo
Procedure: CIA induction in mice was attained by sensitizing mice with type-II collagen to trigger experimental arthritis (see Courtenay et al., Nature, 283, 666-668, 1980).
An emulsion having an antigen amount of 100 μg/0.1 ml/mouse was intracutaneously injected into the tail root of each mouse. Three weeks after the first sensitization, the same emulsion also having an antigen amount of 100 μg/0.1 ml/mouse was again intracutaneously injected into the tail root of each mouse for boosting (additional) immunization, in the same manner as that for the first sensitization. About 4 days after the additional immunization, the mice were diagnosed as being arthritic, in which reddish edema was observed. […] The level of the edema in the mice was grouped into 4 ranks, and every limb (in four limbs) of each mouse was visually checked. […]
Collagen-induced arthritis (CIA) was induced in mice in the same manner as above, and the mice were tested also in the same manner as above. […] The mice were judged on day 14 after the boosting (additional) immunization.
The test condition was the same as above. As a result, in the control group, four of the five mice developed clinical arthritis in 14 days after the second subcutaneous administration; but in the ornithine-administered group, no mice developed it within 14 days after the second subcutaneous administration.
However, it was 0 in the combined administration group.

[2] = test system: SKG mice, model mice with spontaneously-developed chronic rheumatism (rheumatoid arthritis); test: SKG mice with spontaneously-developed chronic rheumatism; assay type: in vivo
From the text: Regarding the score, 0 indicates no change; 0.1 indicates reddish edema seen in the finger joints of the mice; 0.5 indicates edema seen in the joints of the four limbs thereof; and 1.0 indicates serious edema seen in the joints thereof. For these, the mice were visually checked. The total of the scores of all the four limbs of each mouse is plotted in the graph.
An SKG mouse model is known as the naturally-occurring model. This is found in BALB/c mouse colonies as a mouse that develops clinical arthritis, and it is sustained through sibship mating. Regarding the thus-mated SKG mice, when they are judged at 6-month age, almost all mice have some clinical arthritis (joint edema) in any of four limb joints. The arthritis is not by vertical/horizontal infection with microorganisms but is by autosomal recessive inheritance mutation. The clinical arthritis (joint edema) starts in around 2 months after the birth essentially at the finger joints of the forepaws, and thereafter extends to the joints of the hands and the joints of the legs. After 6 months, most of the mice develop arthrosclerosis (articular rigidity). From the pathohistological viewpoint, the disease starts from synovitis to periarthritis and further toward pannus formation and cartilage/subcartilaginous bone tissue fracture and fibrillation. […] This is an extremely interesting model for studying the mechanism of delayed inflammations. As an engineering model, there is known a transgenic (tg) mouse with a Tax gene of a human T cell leukemia virus-1 (HTLV-1) inserted therein. The tg mouse has the transgene expressing in the local joints, in which inflammatory cytokines such as IL-1α, IL-1β, IL-6, TNF-α, TGF-β, IFN-γ and IL-2, as well as MHC gene are activated. […] The tg mouse is a significant model in studies where the influence of Tax gene that will be probably because of its transactivation on the production of inflammatory cytokines or the influence of viruses on the mechanism of autoimmune reaction, and the like are specifically investigated.
The pharmaceutical potency of the above-mentioned BCAA, mixture of branched amino acids, was investigated on SKG mice, model mice with spontaneously-developed chronic rheumatism (articular rheumatism). In the same manner as in Example 2, BCAA was orally administered to 4-weeks-old (before RA development) or 12-weeks-old (after RA development), male SKG mice. The dose to each mouse was 250 mg/liter.

[3] = test system: adjuvant-induced arthritis (AA) in Lewis rats; details: 0.03% ornithine oral
Procedure: AA induction in rats was attained in a well-known laboratory method (see Taurog et al., Meth. Enzymolo., 162, 339-355, 1988). Specifically, 50 μ/rat of 1% (w/v) adjuvant was administered to the bottom of the right foot of each rat. One, two and three weeks after the administration, the volume of the edema in the bottom of the right foot of each rat was measured by the use of a device for measuring rats' hind leg (foot) edema.
The dose is the same as in Example 1.
On day 7, 14 and 21 after the adjuvant administration, the rats were checked for edema.

[4] = 0.03% L-ornithine oral from 4 weeks old, mice having turned 20 weeks old

SMILES: NCCC[C@H](N)C(=O)O [Ornithine, L-ornithine]
- Arthritis Score ([1]; L-ornithine 0.006 wt.% aqueous solution, day 14 after boosting immunization): 1.0
- Arthritis Score ([1]; L-ornithine 0.01% alone, oral in drinking water, day 12 after the second subcutaneous administration): 0.8
- mice showing edema in leg joints ([1]; L-ornithine 0.01% single administration, day 12 after the second subcutaneous administration): three of the ten
- Arthritis Score ([1]; L-ornithine 0.03 wt.% aqueous solution, day 14 after boosting immunization): 0.6
- dose dependence of effect on CIA (in words) ([1]; L-ornithine 0.15%, 0.03%, 0.006% aqueous solutions): dose-response (dependent) effect of retarding clinical arthritis
- Arthritis Score ([1]; L-ornithine 0.15 wt.% aqueous solution, day 14 after boosting immunization): 0.2
- effect of feeding as solid feed on clinical arthritis (in words) ([1]; L-ornithine in solid feed): effective for retarding clinical arthritis
- mice that developed clinical arthritis ([1]; L-ornithine in solid feed, within 14 days after the second subcutaneous administration): no mice
- effect on CIA (in words) ([1]; ornithine 0.03% oral): significantly retards CIA
- Arthritis Score ([1]; ornithine 0.03% oral, day 0 after antigenation): 0
- Arthritis Score ([1]; ornithine 0.03% oral, day 4 after antigenation): 0
- Arthritis Score ([1]; ornithine 0.03% oral, day 6 after antigenation): 0
- Arthritis Score ([1]; ornithine 0.03% oral, day 8 after antigenation): 0
- Arthritis Score ([1]; ornithine 0.03% oral, day 10 after antigenation): 0
- Arthritis Score ([1]; ornithine 0.03% oral, day 12 after antigenation): 0
- Arthritis Score ([1]; ornithine 0.03% oral, day 14 after antigenation): 0
- tested mice showing edema ([1]; ornithine 0.03% oral, up to day 13 after the second subcutaneous administration): none
- arthritis (joint) score ([1]; ornithine 0.03% oral, whole observation (control followed up to day 17)): zero
- effect on clinical arthritis (joint edema) in SKG mice (in words) ([2]; 0.03% L-ornithine oral): significantly retard the clinical arthritis (joint edema)
- arthritis score average ([2]; 0.03% L-ornithine oral from 4 weeks old, male SKG mice having turned 11 weeks old): 0.18
- arthritis (joint) score average [2, 4]: 2.0
- score reduction as compared with the control group [2, 4]: 35%
- disease development (in words) ([2]; 0.03% L-ornithine oral started at 8 weeks old, effect lower than with start at 4 weeks old): the disease development was depressed in 2 weeks
- dose dependence of effect in SKG mice (in words) ([2]; L-ornithine 0.15%, 0.03%, 0.006% aqueous solutions, FIG. 3): dose-dependent (response) effect of retarding clinical arthritis
- effect on clinical arthritis in AA models (in words) [3]: significantly retards clinical arthritis
